What was measured:
S. aureus 209P = assay: Metal ion or food preservative added to growth medium, viable count; assay type: cell-based
Protocol: (§1) To a standard medium for counting viable bacteria described below, each metal ion with varied concentration was added. […] Then, the number of viable bacteria was counted with time in a common procedure.
(§2) Sample bacteria: S. aureus 209P as a representative of Gram-positive bacteria • E. coli 0-157 as a representative of Gram-negative bacteria
(§3) Standard medium for counting viable bacteria: yeast extract 2.5 g, peptone 5 g, glucose 1 g, agar 15 g, pH 7.2

[1] = test system: sample bacteria (S. aureus 209P, E. coli O-157); assay: Death rate over time, food preservative in purified water pH 3.0
E. coli O-157 [2] = assay: Metal ion or food preservative added to growth medium, viable count; assay type: cell-based; settings: food preservative in growth medium
E. coli O-157 [3] = assay: as above; assay type: cell-based; settings: metal ion in growth medium
Protocol: as §1, §2, §3

[4] = food preservative in growth medium

| Compound | (a) Antiproliferative activity, concentration (S. aureus 209P; [4]) | (b) Bacteriostatic activity, concentration (S. aureus 209P; [4]) [ppm>] | Death rate ([1]; 50 ppm, 5 min) | Death rate ([1]; 50 ppm, 10 min) | Death rate ([1]; 50 ppm, 15 min) | Death rate ([1]; 50 ppm, 30 min) | Death rate ([1]; 50 ppm, 60 min) | Death rate ([1]; 50 ppm, 90 min) | Death rate ([1]; 50 ppm, 120 min) | Death rate ([1]; 200 ppm, 5 min) | Death rate ([1]; 200 ppm, 10 min) | Death rate ([1]; 200 ppm, 15 min) | Death rate ([1]; 200 ppm, 30 min) | Death rate ([1]; 200 ppm, 60 min) | Death rate ([1]; 200 ppm, 90 min) | Death rate ([1]; 200 ppm, 120 min) | Death rate ([1]; 500 ppm, 5 min) | Death rate ([1]; 500 ppm, 10 min) | Death rate ([1]; 500 ppm, 15 min) | Death rate ([1]; 500 ppm, 30 min) | also measured |
| --- | --- | --- | --- | --- | --- | --- | --- | --- | --- | --- | --- | --- | --- | --- | --- | --- | --- | --- | --- | --- | --- |
| C/C=C/C=C/C(=O)O [Sorbic acid] | 20~200 ppm | 150 | 0 | 0 | 0 | 2 | 5 | 10 | 15 | 0 | 0 | 0 | 2 | 7 | 12 | 18 | 0 | 0 | 1 | 3 | Death rate ([1]; 500 ppm, 60 min): 10; Death rate ([1]; 500 ppm, 90 min): 15; Death rate ([1]; 500 ppm, 120 min): 20; (a) Antiproliferative activity, concentration (E. coli O-157 [2]): 20~200 ppm; (b) Bacteriostatic activity, concentration (E. coli O-157 [2]): 200 ppm> |
| O=C([O-])c1ccccc1.[Na+] [Sodium benzoate] | 40~300 ppm | 250 | 0 | 0 | 0 | 2 | 5 | 8 | 10 | 0 | 0 | 0 | 2 | 5 | 10 | 12 | 0 | 0 | 1 | 3 | Death rate ([1]; 500 ppm, 60 min): 8; Death rate ([1]; 500 ppm, 90 min): 12; Death rate ([1]; 500 ppm, 120 min): 15; (a) Antiproliferative activity, concentration (E. coli O-157 [2]): 40~300 ppm; (b) Bacteriostatic activity, concentration (E. coli O-157 [2]): 220 ppm> |
| CCOC(=O)c1ccc(O)cc1 [Ethyl para-hydroxybenzoate] | 50~300 ppm | 250 | 0 | 0 | 0 | 2 | 5 | 8 | 12 | 0 | 0 | 0 | 2 | 5 | 10 | 12 | 0 | 0 | 0 | 2 | Death rate ([1]; 500 ppm, 60 min): 7; Death rate ([1]; 500 ppm, 90 min): 12; Death rate ([1]; 500 ppm, 120 min): 15; (a) Antiproliferative activity, concentration (E. coli O-157 [2]): 40~300 ppm; (b) Bacteriostatic activity, concentration (E. coli O-157 [2]): 230 ppm> |
| O.O.O.O.O.O.O.O=S(=O)([O-])[O-].[Ni+2] [Ni^2+, NiSO4•7H2O] | – | – | – | – | – | – | – | – | – | – | – | – | – | – | – | – | – | – | – | – | (a) Antiproliferative activity, concentration (S. aureus 209P; metal ion in growth medium): 25~150 ppm; (b) Bacteriostatic activity, concentration (S. aureus 209P; metal ion in growth medium): 120~300 ppm; (c) Bactericidal activity, concentration (S. aureus 209P; metal ion in growth medium): 300 ppm>; Acceleration of growth, concentration (S. aureus 209P; metal ion in growth medium): 5 ppm<; (a) Antiproliferative activity, concentration (E. coli O-157 [3]): 20~170 ppm; (b) Bacteriostatic activity, concentration (E. coli O-157 [3]): 150~350 ppm; (c) Bactericidal activity, concentration (E. coli O-157 [3]): 350 ppm>; Acceleration of growth, concentration (E. coli O-157 [3]): 10 ppm< |
| O.O.O.O.O.O.[Cl-].[Cl-].[Co+2] [Co^2+, CoCl2•6H2O] | – | – | – | – | – | – | – | – | – | – | – | – | – | – | – | – | – | – | – | – | (c) Bactericidal activity, concentration (S. aureus 209P; metal ion in growth medium): 500 ppm>; Acceleration of growth, concentration (S. aureus 209P; metal ion in growth medium): 20 ppm<; (a) Antiproliferative activity, concentration (E. coli O-157 [3]): 100~250 ppm; (b) Bacteriostatic activity, concentration (E. coli O-157 [3]): 220~500 ppm; (c) Bactericidal activity, concentration (E. coli O-157 [3]): 500 ppm>; Acceleration of growth, concentration (E. coli O-157 [3]): 25 ppm< |

From patent US20110236504A1, “VERSATILE DISINFECTANT” (priority 2008, published 2011)
